According to the supplement of paper PMC10307832:

Tests used:
Test in all cases: relative viability (nuclei count vs DMSO), 5 days (fraction); higher = more cells survive
Lapatinib + OSI-027 = compound: CS(=O)(=O)CCNCc1ccc(-c2ccc3ncnc(Nc4ccc(OCc5cccc(F)c5)c(Cl)c4)c3c2)o1 [Lapatinib] + COc1cccc2cc(-c3nc([C@H]4CC[C@H](C(=O)O)CC4)n4ncnc(N)c34)[nH]c12 [OSI-027] (partner 0.5 µM)
In short: (§1)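 Lung cancer cell lines in 1536-well plates were dosed by pin tool the day after seeding, either with one drug alone or with a fixed anchor-drug dose plus five library-drug doses (not always all listed) in √10 steps. After 5 days, cells were fixed and their nuclei stained in one step (final 0.05% Triton X-100, 1% formaldehyde, 1 ug/ml Hoechst), then counted on 4× images. Relative viability is the nuclei count in treated wells divided by that in vehicle wells. Values are medians of duplicate plates.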

Lapatinib + Tozasertib = compound: CS(=O)(=O)CCNCc1ccc(-c2ccc3ncnc(Nc4ccc(OCc5cccc(F)c5)c(Cl)c4)c3c2)o1 [Lapatinib] + Cc1cc(Nc2cc(N3CCN(C)CC3)nc(Sc3ccc(NC(=O)C4CC4)cc3)n2)n[nH]1 [Tozasertib] (partner 0.1 µM)
In short: as §1

Wnt-C59 + Dasatinib = compound: CC1=NC=CC(=C1)C2=CC=C(C=C2)CC(=O)NC3=CC=C(C=C3)C4=CN=CC=C4 [Wnt-C59] + Cc1nc(Nc2ncc(C(=O)Nc3c(C)cccc3Cl)s2)cc(N2CCN(CCO)CC2)n1 [Dasatinib] (partner 0.075 µM)
In short: as §1

Lapatinib = compound: CS(=O)(=O)CCNCc1ccc(-c2ccc3ncnc(Nc4ccc(OCc5cccc(F)c5)c(Cl)c4)c3c2)o1 [Lapatinib]
In short: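 Nuclei counted with MetaXpress define viability as the ratio of treated to vehicle wells, given as a median across plates. The lung cancer cell lines were in 1536-well plates, pinned with five √10-spaced library-drug doses and imaged at 4× after 5 days and Hoechst staining. Plates passed with control CV below 25% and at least one doubling.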

Cell Line	relative viability (Lapatinib + OSI-027; first compound 0.02 µM)	relative viability (Lapatinib + OSI-027; first compound 0.06325 µM)	relative viability (Lapatinib + OSI-027; first compound 0.2 µM)	relative viability (Lapatinib + OSI-027; first compound 0.6325 µM)	relative viability (Lapatinib + OSI-027; first compound 2 µM)	relative viability (Lapatinib + Tozasertib; first compound 0.02 µM)	relative viability (Lapatinib + Tozasertib; first compound 0.06325 µM)	relative viability (Lapatinib + Tozasertib; first compound 0.2 µM)	relative viability (Lapatinib + Tozasertib; first compound 0.6325 µM)	relative viability (Lapatinib + Tozasertib; first compound 2 µM)	relative viability (Wnt-C59 + Dasatinib; first compound 0.001 µM)	relative viability (Wnt-C59 + Dasatinib; first compound 0.01 µM)	relative viability (Wnt-C59 + Dasatinib; first compound 0.03162 µM)	relative viability (Wnt-C59 + Dasatinib; first compound 0.1 µM)	relative viability (Lapatinib; 0.02 µM)	relative viability (Lapatinib; 0.06325 µM)	relative viability (Lapatinib; 0.2 µM)	relative viability (Lapatinib; 0.6325 µM)	relative viability (Lapatinib; 2 µM)	relative viability (Lapatinib; 2 µM, anchor plate)
NCI-H460	0.544	0.438	0.481	0.533	0.477	0.0815	0.298	0.0669	0.0896	0.06	0.482	0.483	0.524	0.531	0.952	0.984	0.969	0.969	0.868	0.988
NCI-H520	0.276	0.181	0.321	0.266	0.232	0.511	0.393	0.41	0.543	0.405	0.217	0.189	0.208	0.174	0.987	0.93	1.03	1.09	0.998	0.848
NCI-H522	–	0.565	0.658	0.681	0.589	–	0.433	0.523	0.561	0.513	0.92	0.752	0.875	0.882	–	0.746	0.855	1.01	0.791	–
NCI-H596	–	0.52	0.566	0.671	0.416	–	0.741	0.856	0.779	0.567	0.609	0.477	0.554	0.611	–	0.939	0.967	1.14	0.919	1.03
NCI-H647	0.635	0.488	0.527	0.689	0.642	0.312	0.197	0.184	0.212	0.183	0.193	0.166	0.2	0.152	0.776	0.897	0.767	1.02	0.806	1.06
NCI-H650	–	0.411	0.468	0.505	0.543	–	0.648	0.781	0.698	0.601	0.43	0.512	0.457	0.526	–	0.912	0.919	1.04	0.831	0.926
NCI-H661	0.654	0.322	0.545	0.495	0.424	0.377	0.367	0.358	0.348	0.352	0.914	0.736	0.907	0.872	0.987	0.919	0.957	0.822	0.705	0.52
NCI-H727	0.529	–	0.557	0.467	0.499	0.602	–	0.704	0.453	0.391	0.298	–	0.363	0.388	0.839	–	1.11	0.778	0.776	0.796
NCI-H838	0.401	0.256	0.369	0.383	0.332	0.235	0.257	0.256	0.258	0.221	0.291	0.29	0.288	0.302	0.954	0.82	0.97	0.947	0.897	0.992
NCI-H1355	–	0.216	0.342	0.367	0.268	–	0.416	0.498	0.494	0.26	0.725	0.533	0.711	0.617	–	0.828	0.938	0.972	0.746	1
NCI-H1395	0.535	0.597	0.612	0.636	0.627	0.716	0.774	0.701	0.683	0.677	0.406	0.398	0.423	0.444	–	0.896	1.02	0.919	0.742	1.05
NCI-H1437	0.814	0.684	0.841	0.751	0.645	0.388	0.411	0.378	0.347	0.367	0.378	0.308	0.384	0.495	0.919	0.988	0.987	0.914	0.918	0.794
NCI-H1623	0.377	0.367	0.407	0.387	0.246	0.423	0.344	–	0.379	0.154	0.507	0.488	0.572	0.625	0.856	0.649	0.576	0.728	0.328	–
NCI-H1650	0.437	0.456	0.59	0.555	0.338	0.354	0.325	0.399	0.288	0.168	0.302	0.333	0.309	0.322	0.809	0.73	0.851	0.834	0.737	0.805
NCI-H1651	0.648	0.454	0.622	0.648	0.519	0.541	0.622	0.508	0.443	0.325	0.385	0.421	0.405	0.447	0.942	0.811	0.994	0.926	0.989	0.827
NCI-H1666	0.828	0.732	0.645	0.657	0.316	0.598	0.577	0.573	0.453	0.36	0.803	0.84	0.836	0.795	0.936	0.871	0.89	0.862	0.708	0.702
NCI-H1734	0.615	0.375	0.579	0.721	0.507	0.272	0.276	0.274	0.242	0.232	0.418	0.452	0.516	0.442	–	0.794	1.01	1.07	0.943	1.07

Cell Line	relative viability (Lapatinib + OSI-027; first compound 0.02 µM)	relative viability (Lapatinib + OSI-027; first compound 0.06325 µM)	relative viability (Lapatinib + OSI-027; first compound 0.2 µM)	relative viability (Lapatinib + OSI-027; first compound 0.6325 µM)	relative viability (Lapatinib + OSI-027; first compound 2 µM)	relative viability (Lapatinib + Tozasertib; first compound 0.02 µM)	relative viability (Lapatinib + Tozasertib; first compound 0.06325 µM)	relative viability (Lapatinib + Tozasertib; first compound 0.2 µM)	relative viability (Lapatinib + Tozasertib; first compound 0.6325 µM)	relative viability (Lapatinib + Tozasertib; first compound 2 µM)	relative viability (Wnt-C59 + Dasatinib; first compound 0.001 µM)	relative viability (Wnt-C59 + Dasatinib; first compound 0.01 µM)	relative viability (Wnt-C59 + Dasatinib; first compound 0.03162 µM)	relative viability (Wnt-C59 + Dasatinib; first compound 0.1 µM)	relative viability (Lapatinib; 0.02 µM)	relative viability (Lapatinib; 0.06325 µM)	relative viability (Lapatinib; 0.2 µM)	relative viability (Lapatinib; 0.6325 µM)	relative viability (Lapatinib; 2 µM)	relative viability (Lapatinib; 2 µM, anchor plate)
NCI-H1755	0.423	0.567	0.653	0.696	0.697	0.549	0.583	0.559	0.483	0.486	0.429	0.405	0.436	0.41	1.01	0.914	0.936	0.967	0.981	1.03
NCI-H1793	–	0.143	0.235	0.167	0.16	–	0.286	0.213	0.185	0.142	0.431	–	0.468	0.355	–	0.642	0.732	0.803	0.544	0.714
NCI-H1915	–	0.601	0.629	0.607	0.619	–	0.367	0.437	0.383	0.319	0.315	0.316	0.303	0.317	–	0.975	1	0.999	0.977	0.996
NCI-H1944	0.28	0.237	0.356	0.361	0.31	0.245	0.216	0.239	0.205	0.181	0.24	0.218	0.195	0.179	0.781	0.658	0.964	0.853	0.757	0.846
NCI-H1975	0.699	0.472	0.494	0.568	0.446	0.583	0.516	0.25	0.178	0.167	0.412	0.31	0.349	0.447	0.968	0.8	0.904	0.936	0.77	0.946
NCI-H1993	0.557	–	0.593	0.586	0.652	0.518	–	0.574	0.518	0.486	0.601	–	0.631	0.631	0.903	–	0.928	0.873	0.745	0.837
NCI-H2009	0.64	0.557	0.681	0.764	0.66	0.732	0.633	0.78	0.714	0.492	0.31	0.331	0.311	0.311	1.01	0.978	1.02	1.01	1	0.84
NCI-H2023	0.379	–	0.337	0.382	0.177	0.249	–	0.191	0.204	0.137	0.563	0.538	0.628	0.333	0.796	0.744	0.926	0.998	0.823	0.862
NCI-H2085	–	0.536	0.61	0.584	0.269	–	0.748	0.73	0.532	0.337	0.282	0.236	0.269	0.249	0.83	0.854	0.958	0.937	0.859	0.773
NCI-H2087	–	0.259	0.547	0.527	0.489	–	0.233	0.267	0.186	0.215	0.733	0.868	0.943	0.806	0.786	0.833	1.12	0.952	0.975	0.983
NCI-H2126	–	–	0.644	0.688	0.557	–	0.664	0.844	0.712	0.547	0.658	0.592	0.647	0.61	–	0.765	0.946	0.994	0.927	0.759
NCI-H2170	0.459	0.459	0.64	0.41	0.245	0.704	0.553	0.565	0.403	0.169	0.549	0.354	0.601	0.555	0.953	0.913	0.762	0.72	0.332	0.276
NCI-H2228	0.395	0.36	0.482	0.568	0.478	0.25	0.258	0.145	0.205	0.135	0.503	0.429	0.615	0.524	0.902	0.857	0.823	1.04	0.863	1.14
NCI-H2342	0.552	0.503	0.506	0.562	0.55	0.495	0.489	0.455	0.538	0.354	0.326	0.326	0.358	0.337	0.742	0.825	0.798	0.86	0.856	–
NCI-H2347	–	0.266	0.462	0.44	0.366	–	0.57	0.52	0.439	0.399	0.35	0.295	0.327	0.306	0.7	0.999	0.943	1.05	0.904	0.905
NCI-H2405	0.441	0.382	0.655	0.649	0.604	0.665	0.694	0.807	0.759	0.561	0.207	0.232	0.221	0.233	0.674	0.83	0.971	1.01	0.905	1.04
